This is an account of results in patent EP0738149B1 (priority 1994, dated 1995).

Structures can show the parent of a compound that is named as a salt. A value given as a limit tells only on which side of the number the result lay.

For series [1], the system named is rats. The experiment in a line: Maximal electroshock (MES) model in rats, p.o.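 On all read-outs here: rat MES model gauging antiepileptic efficacy versus generalized and partial seizures after oral dosing.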 It is filed as in vivo. Particulars: rats, p.o., Table 15; for ED50: Rattus norvegicus, po, read-out: RATS MES 50.
The subject of series [2] is mice. Nature of the series: Maximal electroshock (MES) model in mice, i.p.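 On all read-outs here: Electroshock-induced convulsion model serving to demonstrate antiepileptic efficacy against generalized and partial seizures.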 It is filed as in vivo. Particulars: for ED50: Mus musculus, ip; for activity in the MES model in mice: statement in words.
Series [3] can be described thus: in vivo. Particulars: rat, in vivo, po. Here is the method:
(§1) Neurotoxicity of the claimed agents was also assessed in mice (i.p. administration) by the rotorod ataxia test and/or in rats (p.o. administration) by positional sense test and gait stance test. […] The term quantitating the neurotoxicity is the medial neurological toxic dose (TD50), was determined in the above tests.

Series [4] in a line: Neurotoxicity in mice (rotorod ataxia test), i.p. The conditions noted are these: mouse, in vivo, ip. How it is done: as §1
In series [5] the test system is male ICR albino mice. Nature of the series: Hypobaric hypoxia survival time in mice. It is filed as in vivo. Here is the method:
Dessicator B was disconnected and allowed to equilibrate with room air whilst dessicator A was evacuated to a pressure of 100mmHg. […] The survival time from the moment of induction of hypoxia to the time of cessation of respiration was recorded for each mouse for a maximum of 15 minutes after which time room air was reintroduced to dessicator B. Survivors were monitored for signs of lethargy or vitality.
Effect of drug treatment was assessed as the percent of the survival time of the drug treated group with respect to the saline injected or vehicle injected control group. Control groups were run twice, before and after each experimental group and consisted of 12-16 mice in groups of 4 mice. Each experimental group always consisted of 4 mice to ensure a constant residual volume of oxygen in all tests. The effect of each dose of test drug was determined in duplicate i.e. two groups of 4 mice.
All drugs were administered intra-peritoneally at the dose indicated one hour prior to exposure to hypoxia.

In series [6] the test system is mechanically dissociated neonatal rat cerebellum. The experiment in a line: Reversal of NMDA induced cell death in cultures of neonatal rat cerebellum. It is filed as cell-based. The conditions noted are these: positive control, 0.01 micromoles plus NMDA. Here is the method: The cerebellum was aseptically dissociated from 6 or 7-day old rat pups and placed in a 15ml sterile plastic conical tube containing 3ml of Dulbecco's modified Eagle's medium (DMEM) with a high glucose concentration ([…]) and 2mM (v/v) L-glutamine and an antibiotic antimitotic mixture. The cerebella were then dissociated after 20-25 passages through a sterile 13 gauge, 10cm long stainless steel needle attached to a 5ml syringe with an inserted 45 micrometer pore nylon sieve. The dissociated cells were centrifuged at 200g for 5 minutes. The supernatant was discarded and the cells resuspended in medium enriched with 15% (v/v) heat inactivated fetal calf serum. Cell viability was determined by the tryptan blue exclusion test.
Cells were plated at a density of 200/mm^2 on poly-L-lysine coated surfaces. Poly-L-lysine coated glass coverslips were prepared at least one hour in advance of plating by immersing sterile coverslips in sterile distilled water solution containing 15 microgram/ml poly-L-lysine, and washing in sterile water just prior to use. The plated cells were covered with enriched medium and incubated at 37°C in an atmosphere of 5% CO2 in air and 97% humidity. After three days in culture, the media was replaced with media containing the desired test compound. Each test compound was tested in duplicate. Toxic-dose response was determined for each compound.
Four groups were run in each set of experiments; • I. Control, consisting of enriched media alone, • II. N-methyl-D-aspartate (NMDA, 1mM for 3 hours) as the cytotoxic challenge, • III. Test compound plus NMDA, and • IV. Positive control, spermine(0.01 micromoles) plus NMDA.
Nerve cell survival was evaluated by phase contrast microscopy and tryptan blue staining after 24 hours.
Surviving cells in culture are measured relative to control (100%), as described above. Percent protection is the Cell Survival for the test compound minus the NMDA effect. Thus, maximal protection is 100% minus 30% NMDA effect i.e. […]. The Effective Protection was calculated as the percent of the Percent Protection (X) divided by the maximal protection value (e.g. X x 100/70).

Setting [7] is: 50 mg/kg ip one hour prior to hypoxia.
Setting [8] is: 100 mg/kg ip one hour prior to hypoxia.

`Cc1ccc2c(c1)CCC2N` (racemic) [Example 38, (rae)-5-Methyl-1-aminoindan.HCl]: the “RATS MES 50” value in series [1] is given as 50 mg/kg. Also, the ED50 in series [2] (Table 15) is < 100 mg/kg. The TD50 in series [3] was > 50 mg/kg; in series [4] (MICE TD50, mice, Table 15), < 100 mg/kg.
Regarding `CN1C(=O)CN=C(c2ccccc2)c2cc(Cl)ccc21` [Diazepam, diazepam, reference compound], the “PROTECTION % OF RESPECTIVE CONTROL” value turned out to be 249±166 % OF RESPECTIVE CONTROL in series [5] (5 mg/kg ip 0.5 hour prior to hypoxia) and 430±59 % OF RESPECTIVE CONTROL in series [5] (10 mg/kg ip 0.5 hour prior to hypoxia).
Turning to `COc1ccc2c(c1)C(N)CC2` (racemic) [Example 25, (rac)-6-Methoxy-1-aminoindan.HCl], in series [1], the “RATS MES 50” value is 50 mg/kg. The ED50 in series [2] (Table 15) was < 100 mg/kg. For the same compound, the TD50 in series [4] (MICE TD50, mice, Table 15) was > 100 mg/kg.
For the compound `C[C@@H]1Cc2ccccc2[C@H]1N` [Example 39, (rac)-trans-2-Methyl-1-aminoindan.HCl], the “RATS MES 50” value in series [1] was <50 mg/kg. Also, in series [2] (Table 15), the ED50 is < 100 mg/kg. Also, the TD50 was > 50 mg/kg in series [3] and < 100 mg/kg in series [4] (MICE TD50, mice, Table 15). Besides, the “PROTECTION % OF RESPECTIVE CONTROL” value in series [5] (setting [7]) came to 600±213 % OF RESPECTIVE CONTROL; in series [5] (setting [8]) it was 798±249 % OF RESPECTIVE CONTROL.
For `CCCC(=O)NC1CCc2ccccc21` (racemic) [Example 11, (rac)-N-Butyryl-1-aminoindan], the figures for the ED50 in series [1] and in series [2] (Table 15) were < 50 mg/kg and < 300 mg/kg, respectively. Moreover, the TD50 is > 50 mg/kg in series [3] and < 300 mg/kg in series [4] (MICE TD50, mice, Table 15).
For `N[C@H]1CCc2ccc(F)cc21` [K, (S)-6-fluoro-1-aminoindan], the ED50 in series [2] (Table 15) was 115 mg/kg. For the same compound, the “activity in the MES model in mice” value in series [2] is on record as “showed activity”. Moreover, the TD50 in series [4] (MICE TD50, mice, Table 15) was < 250 mg/kg; in series [4] (MICE TD50, mice, Table 16) it was < 250 mg/kg.
Regarding `NC(=O)CNC1CCCc2ccccc21` (racemic) [Example 4, (rac)-N-(2-Acetamido)-1-aminotetralin], in series [2] (i.p., Table 15), the “MICE MES ED50” value is recorded as <100 mg/kg.
As to `c1ccc2c(c1)CCC2NC1CCc2ccccc21` (racemic) [Example 43, (rac)-M,N-Di-(1-indanyl)amine.HCl], the “RATS MES 50” value in series [1] is given as <50 mg/kg. Moreover, in series [2] (Table 15), the ED50 was < 100 mg/kg. The TD50 is > 50 mg/kg in series [3] and < 100 mg/kg in series [4] (MICE TD50, mice, Table 15).
Turning to `NC1CCc2ccc(O)cc21` (racemic) [Example 34, (rac)-6-Hydroxy-1-aminoindan.HCl], the ED50 in series [2] (Table 15) was < 300 mg/kg. In series [2], the “activity in the MES model in mice” value is “showed activity”. In series [4] (MICE TD50, mice, Table 15), the TD50 was > 300 mg/kg.
Take `COc1ccc2c(c1OC)CCC2N` (racemic) [Example 31, (rac)-4,5-Dimethoxy-1-aminoindan.HCl]: the ED50 in series [2] (Table 15) is < 100 mg/kg. Also, in series [2], the “activity in the MES model in mice” value was “showed activity”. Further, the TD50 was > 50 mg/kg in series [3] and < 100 mg/kg in series [4] (MICE TD50, mice, Table 15).
`CC(=O)NC1CCc2cccc(C)c21` (racemic) [Example 20, (rac)-7-Methyl-N-acetyl-1-aminoindan]: the results for the ED50 in series [1] and in series [2] (Table 15) were < 50 mg/kg and < 100 mg/kg, respectively. The figures for the TD50 in series [3] and in series [4] (MICE TD50) were > 50 mg/kg and 100 mg/kg, respectively.
Turning to `C[C@H]1Cc2ccccc2[C@H]1N` [Example 40, (rac)-cis-2-Methyl-1-aminoindan.HCl], in series [1], the “RATS MES 50” value is given as <50 mg/kg. Further, the ED50 in series [2] (Table 15) was < 100 mg/kg. Also, the TD50 was > 50 mg/kg in series [3] and < 100 mg/kg in series [4] (MICE TD50, mice, Table 15). Besides, the “PROTECTION % OF RESPECTIVE CONTROL” value in series [5] (setting [7]) is 374±190 % OF RESPECTIVE CONTROL; in series [5] (setting [8]) it was 569±173 % OF RESPECTIVE CONTROL.
As for `Cc1cccc2c1C(N)CC2` (racemic) [Example 28, (rac)-7-Methyl-1-aminoindan.HCl], the “RATS MES 50” value in series [1] was <50 mg/kg. Further, the ED50 in series [2] (Table 15) was < 100 mg/kg. The TD50 in series [3] is > 50 mg/kg; in series [4] (MICE TD50, mice, Table 15), < 100 mg/kg. Moreover, the entries for the “PROTECTION % OF RESPECTIVE CONTROL” value in series [5] (setting [7]) and in series [5] (setting [8]) were 361±106 % OF RESPECTIVE CONTROL and 941±34 % OF RESPECTIVE CONTROL, respectively.
In the case of `C#CCN[C@@H]1CCc2ccccc21.CS(=O)(=O)O` [F, (R)-N-propargyl-1-aminoindan mesylate salt], the ED50 in series [2] (Table 15) is < 300 mg/kg.
As to `NC1CCc2cccc(O)c21` (racemic) [Example 42, (rac)-7-Hydroxy-1-aminoindan.HCl], the “RATS MES 50” value in series [1] is <50 mg/kg. Also, the TD50 in series [3] is > 50 mg/kg. The “PROTECTION % OF RESPECTIVE CONTROL” value in series [5] (setting [7]) came out at 179±170 % OF RESPECTIVE CONTROL; in series [5] (setting [8]) it was 228±119 % OF RESPECTIVE CONTROL.
Turning to `COc1ccc2c(c1OC)CC[C@@H]2N.Cl` [Example 30, (S)-4,5-Dimethoxy-1-aminoindan, HCl], the “PROTECTION % OF RESPECTIVE CONTROL” value is 265±284 % OF RESPECTIVE CONTROL in series [5] (setting [7]) and 379±202 % OF RESPECTIVE CONTROL in series [5] (setting [8]).
For `CCCC(C)C1(CC)C(=O)NC(=O)NC1=O` (stereo not drawn) [Pentobarbitone, sodium pentobarbital, reference compound], the results for the “PROTECTION % OF RESPECTIVE CONTROL” value in series [5] (20 mg/kg ip 0.5 hour prior to hypoxia) and in series [5] (40 mg/kg ip 0.5 hour prior to hypoxia) were 325±166 % OF RESPECTIVE CONTROL and 446±10.5 % OF RESPECTIVE CONTROL, respectively.
For `Cc1cc(C)c2c(c1)C(C)CC2N.Cl` (racemic) [Example 41, (rac)-3,5,7-Trimethyl-1-aminoindan.HCl], the “PROTECTION % OF RESPECTIVE CONTROL” value was 187±41 % OF RESPECTIVE CONTROL in series [5] (setting [7]) and 644±316 % OF RESPECTIVE CONTROL in series [5] (setting [8]).
In the case of `NCCCNCCCCNCCCN` [Spermine, spermine, reference compound], in series [6], the “EFFECTIVE PROTECTION” value turned out to be 74% and the “PERCENT PROTECTION” value was determined as 52%. In addition, in series [6] (relative to control (100%)), the “SURVIVING CELL IN CULTURE” value was 82%.
On to `c1ccc(CNC2CCc3ccccc32)cc1` (racemic) [Example 16, (rac)-N-Benzyl-1-aminoindan.HCl], for which the “RATS MES 50” value in series [1] came out at 50 mg/kg. For the same compound, the ED50 in series [2] (Table 15) was < 50 mg/kg. Moreover, in series [3], the TD50 was > 50 mg/kg.
Turning to `NC1Cc2ccccc21` (stereo not drawn) [Example 27, 1-Aminobenzocyclobutene.HCl], the “RATS MES 50” value in series [1] is listed as <50 mg/kg. Besides, in series [2] (Table 15), the ED50 is < 100 mg/kg. The TD50 in series [3] is > 50 mg/kg; in series [4] (MICE TD50, mice, Table 15), > 100 mg/kg.
